Measured values reported in patent US20110081315A1, “NOVEL MACROCYCLIC INHIBITORS OF HEPATITIS C VIRUS REPLICATION” (INTERMUNE, INC., priority 2009, published 2011).
pEC50, pIC50: −log10 of the molar value.

What was measured:
[1] = tested on: hepatitis C replicon; assay: hepatitis C replicon EC50 assay; assay type: cell-based; details: Hepatitis C virus; hepatitis C replicon; read-out: EC50
Summary of the method: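 Buffer: 50 mM Tris-HCl pH 7.5, 15% glycerol, 0.6 mM LDAO, 25 μM NS4A peptide, 10 mM DTT, at 23° C. (ambient). EC50 follows a referenced published replicon protocol.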

[2] = biological target: NS3/NS4 complexes (Hepatitis C virus genotype 1a, UniProt P27958); assay: NS3/NS4 inhibition assay (IC50); assay type: biochemical; details: NS3/NS4 activity; 23° C., 25 μM NS4A peptide
Summary of the method: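 First, NS3 and NS4 are complexed; test compounds are then titrated against the complex at room temperature (23° C.) in Tris-HCl buffer, pH 7.5, supplemented with glycerol (15%), LDAO (0.6 mM), DTT (10 mM) and NS4A peptide (25 μM) to give IC50. Separately, replicon cells give EC50.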

Chain of NS3/NS4 complexes (P27958 1027-1657, one chain of several): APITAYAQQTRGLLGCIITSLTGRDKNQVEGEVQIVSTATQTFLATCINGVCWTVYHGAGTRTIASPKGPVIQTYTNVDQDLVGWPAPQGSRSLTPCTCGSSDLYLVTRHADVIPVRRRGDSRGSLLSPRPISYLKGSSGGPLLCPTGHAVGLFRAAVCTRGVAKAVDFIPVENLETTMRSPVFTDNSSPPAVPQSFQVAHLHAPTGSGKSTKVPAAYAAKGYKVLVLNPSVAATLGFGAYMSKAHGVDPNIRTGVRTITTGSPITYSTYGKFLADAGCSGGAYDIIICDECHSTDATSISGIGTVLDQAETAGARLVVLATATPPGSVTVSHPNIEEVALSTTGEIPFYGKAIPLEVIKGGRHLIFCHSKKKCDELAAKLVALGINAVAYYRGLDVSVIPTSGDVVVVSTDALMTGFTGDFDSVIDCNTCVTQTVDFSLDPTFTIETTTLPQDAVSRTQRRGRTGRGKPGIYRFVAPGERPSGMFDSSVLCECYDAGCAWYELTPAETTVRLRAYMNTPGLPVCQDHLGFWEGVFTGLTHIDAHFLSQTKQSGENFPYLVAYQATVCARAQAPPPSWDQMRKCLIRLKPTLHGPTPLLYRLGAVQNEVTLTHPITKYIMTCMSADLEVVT

Row | SMILES | pEC50 [1] | pIC50 [2]
1 | CC(C)n1c(O[C@@H]2C[C@H]3C(=O)N[C@]4(C(=O)NS(=O)(=O)C5(C)CC5)C[C@H]4/C=C\CCCCC[C@H](NC(=O)OC(C)(C)C)C(=O)N3C2)nc2c(-c3nc(Cc4cccc(F)c4)cs3)cccc21 [Compound 1725] | > 8.00 | > 8.00
2 | CCN1CCN(C(=O)c2cccc(N[C@H]3CCCCC/C=C\[C@@H]4C[C@@]4(C(=O)NS(=O)(=O)C4(C)CC4)NC(=O)[C@@H]4C[C@@H](Oc5cc(-c6nc(C(C)C)cs6)nc6c(C)c(OC)ccc56)CN4C3=O)c2)CC1 [Compound 112] | > 8.00 | > 8.00
3 | CC(C)n1c(O[C@@H]2C[C@H]3C(=O)N[C@]4(C(=O)NS(=O)(=O)C5(C)CC5)C[C@H]4/C=C\CCCCC[C@H](NC(=O)OC(C)(C)C)C(=O)N3C2)nc2c(-c3nc(Cc4ccc(F)cc4)cs3)cccc21 [Compound 1726] | > 8.00 | > 8.00
4 | Cc1sc(-c2cccc3c2nc(O[C@@H]2C[C@H]4C(=O)N[C@]5(C(=O)NS(=O)(=O)N(C)C)C[C@H]5/C=C\CCCCC[C@H](NC(=O)OC(C)(C)C)C(=O)N4C2)n3C(C)C)nc1Cc1ccccc1 [Compound 1216] | > 8.00 | > 8.00
5 | CC(C)c1nc(-c2cccc3c2nc(O[C@@H]2C[C@H]4C(=O)N[C@]5(C(=O)NS(=O)(=O)N(C)C)C[C@H]5/C=C\CCCCC[C@H](NC(=O)OC(C)(C)C)C(=O)N4C2)n3C(C)C)oc1C(C)C [Compound 1211] | > 8.00 | > 8.00
6 | Cc1ccccc1-c1csc(-c2cccc3c2nc(O[C@@H]2C[C@H]4C(=O)N[C@]5(C(=O)NS(=O)(=O)C6(C)CC6)C[C@H]5/C=C\CCCCC[C@H](NC(=O)OC(C)(C)C)C(=O)N4C2)n3C(C)C)n1 [Compound 1712] | > 8.00 | > 8.00
7 | COc1ccc2c(O[C@@H]3C[C@H]4C(=O)N[C@]5(C(=O)NS(=O)(=O)C6(C)CC6)C[C@H]5/C=C\CCCCC[C@H](Nc5cccc(-c6ncco6)c5)C(=O)N4C3)cc(-c3nc(C(C)C)cs3)nc2c1C [Compound 128] | > 8.00 | > 8.00
8 | CNC(=O)Nc1cccc2c1nc(O[C@@H]1C[C@H]3C(=O)N[C@]4(C(=O)NS(=O)(=O)C5(C)CC5)C[C@H]4/C=C\CCCCC[C@H](Nc4ccccc4)C(=O)N3C1)n2C(C)C [Compound 1406] | < 7.00 | > 8.00
9 | CC(C)c1ccc2c(c1)nc(O[C@@H]1C[C@H]3C(=O)N[C@]4(C(=O)NS(=O)(=O)N(C)C)C[C@H]4/C=C\CCCCC[C@H](NC(=O)OC(C)(C)C)C(=O)N3C1)n2C(C)C [Compound 289] | 7.00 to 8.00 | > 8.00
10 | CN(C)S(=O)(=O)NC(=O)[C@@]12C[C@H]1/C=C\CCCCC[C@H](NC(=O)OC(C)(C)C)C(=O)N1C[C@H](Oc3nc4ccccc4nc3C(F)(F)F)C[C@H]1C(=O)N2 [Compound 303] | > 8.00 | > 8.00
11 | Cc1sc(-c2cccc3c2nc(O[C@@H]2C[C@H]4C(=O)N[C@]5(C(=O)NS(=O)(=O)C6(C)CC6)C[C@H]5/C=C\CCCCC[C@H](NC(=O)OC(C)(C)C)C(=O)N4C2)n3C(C)C)nc1Cc1ccccc1 [Compound 1217] | > 8.00 | > 8.00
12 | CCOC(=O)Nc1cccc2c1nc(O[C@@H]1C[C@H]3C(=O)N[C@]4(C(=O)NS(=O)(=O)N(C)C)C[C@H]4/C=C\CCCCC[C@H](NC(=O)OC(C)(C)C)C(=O)N3C1)n2C(C)C [Compound 1427] | > 8.00 | > 8.00
13 | CCc1nc2ccccc2nc1O[C@@H]1C[C@H]2C(=O)N[C@]3(C(=O)NS(=O)(=O)N(C)C)C[C@H]3/C=C\CCCCC[C@H](NC(=O)OC(C)(C)C)C(=O)N2C1 [Compound 302] | > 8.00 | > 8.00
14 | CC(C)n1c(O[C@@H]2C[C@H]3C(=O)N[C@]4(C(=O)NS(=O)(=O)C5CC5)C[C@H]4/C=C\CCCCC[C@H](NC(=O)OC(C)(C)C)C(=O)N3C2)nc2c(-c3nc(C(C)(C)C)cs3)cccc21 [Compound 220] | > 8.00 | > 8.00
15 | CC(C)n1c(O[C@@H]2C[C@H]3C(=O)N[C@]4(C(=O)NS(=O)(=O)N(C)C)C[C@H]4/C=C\CCCCC[C@H](NC(=O)OC(C)(C)C)C(=O)N3C2)nc2c(NC(=O)OCCc3ccccc3)cccc21 [Compound 1429] | > 8.00 | > 8.00
16 | CC(C)n1c(O[C@@H]2C[C@H]3C(=O)N[C@]4(C(=O)NS(=O)(=O)N(C)C)C[C@H]4/C=C\CCCCC[C@H](NC(=O)OC(C)(C)C)C(=O)N3C2)nc2c(NC(=O)OCc3ccccc3)cccc21 [Compound 1428] | > 8.00 | > 8.00
17 | COc1ccc(Cc2csc(-c3cccc4c3nc(O[C@@H]3C[C@H]5C(=O)N[C@]6(C(=O)NS(=O)(=O)C7(C)CC7)C[C@H]6/C=C\CCCCC[C@H](NC(=O)OC(C)(C)C)C(=O)N5C3)n4C(C)C)n2)cc1OC [Compound 1723] | > 8.00 | > 8.00
18 | CC(C)n1c(O[C@@H]2C[C@H]3C(=O)N[C@]4(C(=O)NS(=O)(=O)C5(C)CC5)C[C@H]4/C=C\CCCCC[C@H](Nc4ccccc4)C(=O)N3C2)nc2c(-c3ccc(OC(F)(F)F)cc3)cccc21 [Compound 249] | < 7.00 | > 8.00

Row | SMILES | pEC50 [1] | pIC50 [2]
19 | Cc1cccc(-c2csc(-c3cccc4c3nc(O[C@@H]3C[C@H]5C(=O)N[C@]6(C(=O)NS(=O)(=O)C7(C)CC7)C[C@H]6/C=C\CCCCC[C@H](NC(=O)OC(C)(C)C)C(=O)N5C3)n4C(C)C)n2)c1 [Compound 1713] | 7.00 to 8.00 | > 8.00
20 | CC(C)c1nc(-c2cccc3c2nc(O[C@@H]2C[C@H]4C(=O)N[C@]5(C(=O)NS(=O)(=O)N(C)C)C[C@H]5/C=C\CCCCC[C@H](Nc5ccccc5)C(=O)N4C2)n3C(C)C)sc1C(C)C [Compound 1218] | < 7.00 | > 8.00
21 | CC(C)n1c(O[C@@H]2C[C@H]3C(=O)N[C@]4(C(=O)NS(=O)(=O)C5(C)CC5)C[C@H]4/C=C\CCCCC[C@H](Nc4ccccc4)C(=O)N3C2)nc2c(-c3ccc(F)c(C(F)(F)F)c3)cccc21 [Compound 246] | < 7.00 | > 8.00
22 | CC(C)n1c(O[C@@H]2C[C@H]3C(=O)N[C@]4(C(=O)NS(=O)(=O)C5(C)CC5)C[C@H]4/C=C\CCCCC[C@H](NC(=O)OC(C)(C)C)C(=O)N3C2)nc2c(-c3nc(Cc4ccc(F)c(F)c4)cs3)cccc21 [Compound 1721] | > 8.00 | > 8.00
23 | CC(C)n1c(O[C@@H]2C[C@H]3C(=O)N[C@]4(C(=O)NS(=O)(=O)C5(C)CC5)C[C@H]4/C=C\CCCCC[C@H](NC(=O)OC(C)(C)C)C(=O)N3C2)nc2c(-c3csc(N4CCOCC4)n3)cccc21 [Compound 1704] | > 8.00 | > 8.00
24 | Cc1oc(-c2cccc3c2nc(O[C@@H]2C[C@H]4C(=O)N[C@]5(C(=O)NS(=O)(=O)C6(C)CC6)C[C@H]5/C=C\CCCCC[C@H](NC(=O)OC(C)(C)C)C(=O)N4C2)n3C(C)C)nc1Cc1ccccc1 [Compound 1215] | > 8.00 | > 8.00
25 | Cc1csc(-c2cccc3c2nc(O[C@@H]2C[C@H]4C(=O)N[C@]5(C(=O)NS(=O)(=O)N(C)C)C[C@H]5/C=C\CCCCC[C@H](NC(=O)OC(C)(C)C)C(=O)N4C2)n3C(C)C)n1 [Compound 228] | > 8.00 | > 8.00
26 | COc1ccc2c(O[C@@H]3C[C@H]4C(=O)N[C@]5(C(=O)NS(=O)(=O)C6(C)CC6)C[C@H]5/C=C\CCCCC[C@H](Nc5cccc(C(C)(C)C)c5)C(=O)N4C3)cc(-c3nc(C(C)C)cs3)nc2c1C [Compound 129] | 7.00 to 8.00 | > 8.00
27 | CC(C)n1c(O[C@@H]2C[C@H]3C(=O)N[C@]4(C(=O)NS(=O)(=O)C5(C)CC5)C[C@H]4/C=C\CCCCC[C@H](Nc4ccccc4)C(=O)N3C2)nc2c(C(N)=O)cccc21 [Compound 268] | 7.00 to 8.00 | > 8.00
28 | CC(C)n1c(O[C@@H]2C[C@H]3C(=O)N[C@]4(C(=O)NS(=O)(=O)N(C)C)C[C@H]4/C=C\CCCCC[C@H](NC(=O)OC(C)(C)C)C(=O)N3C2)nc2c(C(=O)NCc3nccs3)cccc21 [Compound 1222] | > 8.00 | > 8.00
29 | CC(C)n1c(O[C@@H]2C[C@H]3C(=O)N[C@]4(C(=O)NS(=O)(=O)C5CC5)C[C@H]4/C=C\CCCCC[C@H](NC(=O)OC(C)(C)C)C(=O)N3C2)nc2c(-c3cccs3)cccc21 [Compound 213] | > 8.00 | > 8.00
30 | CC(C)n1c(O[C@@H]2C[C@H]3C(=O)N[C@]4(C(=O)NS(=O)(=O)C5(C)CC5)C[C@H]4/C=C\CCCCC[C@H](Nc4cccc(C(C)(C)C)c4)C(=O)N3C2)nc2ccccc21 [Compound 200] | > 8.00 | > 8.00
31 | COc1ccc2c(O[C@@H]3C[C@H]4C(=O)N[C@]5(C(=O)NS(=O)(=O)C6(C)CC6)C[C@H]5/C=C\CCCCC[C@H](Nc5cccc(C(=O)N6CCN(CCN(C)C)CC6)c5)C(=O)N4C3)cc(-c3nc(C(C)C)cs3)nc2c1C [Compound 111] | > 8.00 | > 8.00
32 | CC(C)n1c(O[C@@H]2C[C@H]3C(=O)N[C@]4(C(=O)NS(=O)(=O)N(C)C)C[C@H]4/C=C\CCCCC[C@H](NC(=O)OC(C)(C)C)C(=O)N3C2)nc2c(-c3nc(CC4CCCCC4)cs3)cccc21 [Compound 1772] | 7.00 to 8.00 | > 8.00
33 | CC1(S(=O)(=O)NC(=O)[C@@]23C[C@H]2/C=C\CCCCC[C@H](Nc2ccccc2)C(=O)N2C[C@H](n4nnc(-c5cccc(-c6nccs6)c5)n4)C[C@H]2C(=O)N3)CC1 [Compound 805] | < 7.00 | > 8.00
34 | CC(C)(C)OC(=O)N[C@H]1CCCCC/C=C\[C@@H]2C[C@@]2(C(=O)NS(=O)(=O)C2(C)CC2)NC(=O)[C@@H]2C[C@@H](n3nnc(-c4ccccc4)n3)CN2C1=O [Compound 801] | 7.00 to 8.00 | > 8.00
35 | CC(C)n1c(O[C@@H]2C[C@H]3C(=O)N[C@]4(C(=O)NS(=O)(=O)C5(C)CC5)C[C@H]4/C=C\CCCCC[C@H](NC(=O)OC(C)(C)C)C(=O)N3C2)nc2c(-c3nc(-c4ccccc4)cs3)cccc21 [Compound 1708] | > 8.00 | > 8.00
